This note sets out measurements from PubChem BioAssay AID1963873 (Molecular Pharmacology Branch, DTP, NCI, 2024).

Usually IC50 stands for the concentration that inhibits the measured activity by half. Usually viability, T/C stands for the result in the treated group divided by that in the control group, in per cent.

Bounds are passed on as bounds.

The test system of this experiment is 276233-004-R-J1-PDC KRAS spheroids with HUVEC/MSC, viability. In words: Anticancer human tumor 276233-004-R-J1-PDC patient-derived colon adenocarcinoma cell line growth inhibition [KRAS2]. The following applies: for viability, T/C: stronger effect = lower value. Summed up: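 Combination screen of spheroid viability in tumor-cell co-cultures with endothelial (HUVEC) and mesenchymal stem cell stroma. Each agent was tested in half-log dilutions, topping at clinical Cmax or at 10 microM without a known Cmax.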

[1] abbreviates: curve of first compound, second compound 0.1 µM.
[2] abbreviates: curve of first compound, second compound 0.316 µM.
[3] abbreviates: curve of first compound, second compound 1 µM.
Where [4] appears, read: curve of first compound, second compound 3.16 µM.
Setting [5] is: second compound 0.1 µM, first compound 0.01 µM.
Setting [6] is: second compound 0.1 µM, first compound 0.0316 µM.
Where [7] appears, read: second compound 0.1 µM, first compound 0.1 µM.
[8] abbreviates: second compound 0.1 µM, first compound 0.316 µM.
Where [9] appears, read: second compound 0.1 µM, first compound 1 µM.
Where [10] appears, read: second compound 0.1 µM, first compound 3.16 µM.
The mark [11] stands for this setting: second compound 0.316 µM, first compound 0.01 µM.
Where [12] appears, read: second compound 0.316 µM, first compound 0.0316 µM.
Setting [13] is: second compound 0.316 µM, first compound 0.1 µM.
Where [14] appears, read: second compound 0.316 µM, first compound 0.316 µM.
[15] abbreviates: second compound 0.316 µM, first compound 1 µM.
Setting [16] is: second compound 0.316 µM, first compound 3.16 µM.
Where [17] appears, read: second compound 1 µM, first compound 0.01 µM.
Setting [18] is: second compound 1 µM, first compound 0.0316 µM.
Setting [19] is: second compound 1 µM, first compound 0.1 µM.
The mark [20] stands for this setting: second compound 1 µM, first compound 0.316 µM.
The mark [21] stands for this setting: second compound 1 µM, first compound 1 µM.
Setting [22] is: second compound 1 µM, first compound 3.16 µM.
[23] abbreviates: second compound 3.16 µM, first compound 0.01 µM.
[24] abbreviates: second compound 3.16 µM, first compound 0.0316 µM.
The mark [25] stands for this setting: second compound 3.16 µM, first compound 0.1 µM.
[26] abbreviates: second compound 3.16 µM, first compound 0.316 µM.
Where [27] appears, read: second compound 3.16 µM, first compound 1 µM.
[28] abbreviates: second compound 3.16 µM, first compound 3.16 µM.
Setting [29] is: curve of first compound, second compound 10 µM.
Where [30] appears, read: second compound 10 µM, first compound 0.0316 µM.
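Also: cells exposed to agents for seven days before viability read.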
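For viability, T/C in this document: 100% = DMSO vehicle control wells and lower values mean fewer viable cells.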

Turning to `CC1COCCN1c1cc(-c2ccnn2C)c2ccnc(-c3ccn[nH]3)c2n1` (centres undefined) + C=CC(=O)N1CCN(c2nc(OCC3CCCN3C)nc3c2CCN(c2cccc4cccc(C)c24)C3)CC1CC#N, the IC50 was more than 3160 nM (curve of first compound, second compound 0.0316 µM); more than 3160 nM under setting [1]; more than 3160 nM under setting [2]; more than 3160 nM under setting [3]; 190 nM under setting [4]. Besides, the viability, T/C reads like this: (second compound 0.0316 µM, first compound 0.01 µM) 100%; (second compound 0.0316 µM, first compound 0.0316 µM) 92.7%; (second compound 0.0316 µM, first compound 0.1 µM) 82.4%; (second compound 0.0316 µM, first compound 0.316 µM) 71.3%; (second compound 0.0316 µM, first compound 1 µM) 67.5%; (second compound 0.0316 µM, first compound 3.16 µM) 56%. For the same compound, the viability, T/C reads like this: under setting [5], 111%; under setting [6], 95.3%; under setting [7], 94.6%; under setting [8], 74.8%; under setting [9], 59%; under setting [10], 54.1%. Also, the viability, T/C is, setting by setting: under setting [11], 106%; under setting [12], 96.6%; under setting [13], 91.5%; under setting [14], 69.4%; under setting [15], 59.3%; under setting [16], 55.6%. Besides, the viability, T/C is 90% under setting [17]; 90.5% under setting [18]; 77.8% under setting [19]; 70.3% under setting [20]; 64% under setting [21]; 56.9% under setting [22]. Moreover, the viability, T/C reads like this: under setting [23], 76.2%; under setting [24], 61%; under setting [25], 56.8%; under setting [26], 42.9%; under setting [27], 45.6%; under setting [28], 48%.
Turning to `CC(=O)Nc1cccc(-n2c(=O)n(C3CC3)c(=O)c3c(Nc4ccc(I)cc4F)n(C)c(=O)c(C)c32)c1` + C=CC(=O)N1CCN(c2nc(=O)n(-c3c(C)ccnc3C(C)C)c3nc(-c4c(O)cccc4F)c(F)cc23)C(C)C1, the IC50 by setting is: under setting [1], 6.44 nM; under setting [2], 9.46 nM; under setting [3], 9.28 nM; under setting [4], 6.41 nM; under setting [29], 2.45 nM. Besides, the viability, T/C is 89.9% (second compound 0.1 µM, first compound 0.0001 µM); 97.5% (second compound 0.1 µM, first compound 0.000316 µM); 85.7% (second compound 0.1 µM, first compound 0.001 µM); 58.9% (second compound 0.1 µM, first compound 0.00316 µM); 45.4% under setting [5]; 21.3% under setting [6]. Also, the viability, T/C runs as follows: (second compound 0.316 µM, first compound 0.0001 µM) 87.1%; (second compound 0.316 µM, first compound 0.000316 µM) 84.9%; (second compound 0.316 µM, first compound 0.001 µM) 76.9%; (second compound 0.316 µM, first compound 0.00316 µM) 74%; under setting [11], 47.9%; under setting [12], 18.6%. Moreover, the viability, T/C reads like this: (second compound 1 µM, first compound 0.0001 µM) 102%; (second compound 1 µM, first compound 0.000316 µM) 85.5%; (second compound 1 µM, first compound 0.001 µM) 80%; (second compound 1 µM, first compound 0.00316 µM) 71.9%; under setting [17], 49.5%; under setting [18], 19.4%. Also, the viability, T/C runs as follows: (second compound 3.16 µM, first compound 0.0001 µM) 75.2%; (second compound 3.16 µM, first compound 0.000316 µM) 96.3%; (second compound 3.16 µM, first compound 0.001 µM) 65.8%; (second compound 3.16 µM, first compound 0.00316 µM) 59.5%; under setting [23], 45.9%; under setting [24], 24.2%. In addition, the viability, T/C is 74.2% (second compound 10 µM, first compound 0.0001 µM); 73% (second compound 10 µM, first compound 0.000316 µM); 57.6% (second compound 10 µM, first compound 0.001 µM); 45.4% (second compound 10 µM, first compound 0.00316 µM); 36.8% (second compound 10 µM, first compound 0.01 µM); 21.3% under setting [30].
For `CC(C)NCC(C(=O)N1CCN(c2ncnc3c2C(C)CC3O)CC1)c1ccc(Cl)cc1` (centres undefined) + C=CC(=O)N1CCN(c2nc(=O)n(-c3c(C)ccnc3C(C)C)c3nc(-c4c(O)cccc4F)c(F)cc23)C(C)C1, the IC50 reads like this: under setting [1], more than 10000 nM; under setting [2], more than 10000 nM; under setting [3], more than 10000 nM; under setting [4], 7170 nM; under setting [29], more than 10000 nM. For the same compound, the viability, T/C reads like this: under setting [6], 109%; under setting [7], 128%; under setting [8], 91.3%; under setting [9], 74.2%; under setting [10], 73.6%; (second compound 0.1 µM, first compound 10 µM) 70.5%. Also, the viability, T/C by setting is: under setting [12], 89%; under setting [13], 71.7%; under setting [14], 101%; under setting [15], 80%; under setting [16], 77.3%; (second compound 0.316 µM, first compound 10 µM) 63.1%. The viability, T/C is 106% under setting [18]; 102% under setting [19]; 93.8% under setting [20]; 76.9% under setting [21]; 81.1% under setting [22]; 60.7% (second compound 1 µM, first compound 10 µM). In addition, the viability, T/C reads like this: under setting [24], 125%; under setting [25], 103%; under setting [26], 67.4%; under setting [27], 66.5%; under setting [28], 59.3%; (second compound 3.16 µM, first compound 10 µM) 57.5%. Besides, the viability, T/C by setting is: under setting [30], 75%; (second compound 10 µM, first compound 0.1 µM) 79.1%; (second compound 10 µM, first compound 0.316 µM) 58.9%; (second compound 10 µM, first compound 1 µM) 66.8%; (second compound 10 µM, first compound 3.16 µM) 85.5%; (second compound 10 µM, first compound 10 µM) 64.4%.
On to `COc1cc(OC)cc(N(CCNC(C)C)c2ccc3ncc(-c4cnn(C)c4)nc3c2)c1`, for which the viability, T/C runs as follows: (compound 0.0316 µM) 76.3% [middle of 5 runs]; (compound 0.1 µM) 67.4% [middle of 5 runs]; (compound 0.316 µM) 67% [middle of 5 runs].
For the compound `CC(C)n1nc(-c2ccc3oc(N)nc3c2)c2c(N)ncnc21`, the viability, T/C by setting is: (compound 0.000316 µM) 98.1% [middle of 5 runs]; (compound 0.001 µM) 86.1% [middle of 5 runs]; (compound 0.01 µM) 66.5% [middle of 5 runs]; (compound 0.0316 µM) 60.8% [middle of 5 runs]; (compound 0.1 µM) 59.6% [middle of 5 runs]. Further, the IC50 (curve of compound) is more than 100 nM.
